Columns and labels:
HCT116 cells [1] = experiment: Cell apoptosis (Annexin V-FITC/PI, flow cytometry); type: cell-based, human; settings: 48 h
Method: HCT116 cells were seeded in 6-well plates (4 × 10^5 cells/well). The following day, defined concentrations of compound 33a or 36b were added to the wells for 48 h at 37 °C with 5% CO2. The cells were collected and stained with Annexin V-FITC and PI for 15 min at room temperature. Apoptotic cells were analyzed with flow cytometry (BD Bioscience).

HeLa cells = experiment: CCK-8 anti-proliferation assay, HeLa; type: cell-based, human; settings: Homo sapiens, HeLa, 48 h, CCK-8, 48 h, mean ± SD, three independent experiments
Method: Tumor cell anti-proliferation activities were determined by cell counting kit-8 (CCK-8) assay.
(§1) MCF-7, A375, and HeLa cells were cultured in DMEM, HCT116 cells were cultured in McCoy's 5A medium, and DU145 and CT26 were cultured in RPMI 1640 with 10% FBS, 1% penicillin-streptomycin solution (10,000 U/mL penicillin and 10,000 μg/mL streptomycin) at 37 °C under 5% CO2. The cells were seeded in 96-well plates (4 × 10^3 cells/well) overnight and then treated with various concentrations (1–50 μmol/L) of the compound. After 48 h, the cell viability was measured by CCK-8 assay. The absorbance of each well was measured using a microplate reader (Multiskan FC, Thermo Fisher Scientific, Massachusetts, USA) at 450 nm wavelength. Assays were performed in triplicate. Compound concentrations that inhibited cell growth by 50% (IC50) were calculated from the dose–response curves of each cell line. Data are mean ± SD values from three independent experiments.

c-MYC [2] = molecular target: T1, c-MYC (Homo sapiens, UniProt P01106); experiment: Cellular thermal shift assay (CETSA); type: binding; set-up: HCT116 cells were lysed with mammalian protein extraction reagent (M-PER); endogenous in cells; host or cells: HCT116; settings: 40-70 °C
T1 sequence (P01106 whole entry): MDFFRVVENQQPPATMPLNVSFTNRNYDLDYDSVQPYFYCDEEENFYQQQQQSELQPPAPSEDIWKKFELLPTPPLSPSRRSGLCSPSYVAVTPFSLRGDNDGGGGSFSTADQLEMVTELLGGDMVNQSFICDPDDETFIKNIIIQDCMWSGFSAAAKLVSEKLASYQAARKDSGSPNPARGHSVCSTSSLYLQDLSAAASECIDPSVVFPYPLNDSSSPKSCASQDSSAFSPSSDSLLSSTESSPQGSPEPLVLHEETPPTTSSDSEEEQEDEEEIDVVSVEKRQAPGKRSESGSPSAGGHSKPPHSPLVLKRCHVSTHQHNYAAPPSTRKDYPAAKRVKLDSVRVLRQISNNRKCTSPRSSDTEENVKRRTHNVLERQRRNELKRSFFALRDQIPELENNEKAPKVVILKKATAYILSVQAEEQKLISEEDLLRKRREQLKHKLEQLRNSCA
Method: In short, the lysates were incubated with 33a or 36b or DMSO for 30 min. The […] were divided equally and individually heated at different temperatures (40–70 °C) for 3 min and then cooled on ice. After freeze-thawing twice with liquid nitrogen, the supernatant was centrifuged, collected, and boiled in a loading buffer. c-MYC protein was analyzed by Western blot.

HCT116 cells [3] = experiment: Intracellular ROS measurement (DCFH-DA); type: cell-based, human; settings: 48 h
Method: HCT116 cells were seeded in 96-well plates overnight and then the cells were treated with defined concentrations of compound 33a or 36b. In addition, cells were pretreated with 0.8 mmol/L NAC for 1 h. After 48 h, the cells were washed with PBS. DCFH-DA (100 μL, 100 μmol/L) was added to each well and incubated for 30 min at 37 °C, and the cells were washed twice with PBS. Finally, the cells were cultivated in a 100 μL culture medium and the fluorescence signals were detected with an EnVision® NexusTM Multi-Mode Microplate Reader or flow cytometry (Becton, Dickinson Company).

[4] = test system: A375 (human malignant melanoma); experiment: CCK-8 anti-proliferation assay, A375; type: cell-based; settings: Homo sapiens, A-375; CCK-8, 48 h, mean ± SD
Method: (§2) To evaluate their spectrum of anti-proliferative activity, further CCK-8 assays were carried out with the selected compounds (5a/5b, 8a/8b, 33a/33b, and 36a/36b) on MCF-7 (human breast cancer), A375 (human malignant melanoma), DU145 (human prostate cancer), and CT26 (mouse colon cancer) cell lines. The selected compounds had moderate to potent antitumor activity on the four cell lines, indicating their broad spectrum of antitumor activity (Table 5).
as §1

HCT116 cells [5] = experiment: Wound healing assay; type: cell-based, human; settings: 24 h
Method: HCT116 cells were seeded in 6-well plates (6 × 10^5 cells/well) to full confluence and then an artificial wound was created in the cell monolayer using a 200 μl pipette tip. Images of wound closure were captured at 0 and 24 h using a Leica DMIL fluorescence microscope (Leica Microsystems). The percentage of wound closure was calculated using Image J software.

[6] = test system: CT26 (mouse colon cancer); experiment: CCK-8 anti-proliferation assay, CT26; type: cell-based; settings: Mus musculus, CT26; CCK-8, 48 h, mean ± SD
Method: as §2, §1

HCT116 cells [7] = experiment: Colony formation; type: cell-based, human; settings: 48 h treatment, then 14 days
Method: HCT116 cells were seeded in 6-well plates (1.5 × 10^3 cells/well). Various concentrations of compound 33a or 36b were added to the wells for 48 h. The culture medium was changed every 72 h, at the end of 14 days, cells were fixed with methanol for 30 min and stained with 0.1% crystal violet staining solution for 30 min at room temperature, then washed three times in PBS and allowed to dry. Photographs were then taken.

HCT116 cells [8] = experiment: Cell cycle assay (PI, flow cytometry); type: cell-based, human; settings: 48 h
Method: Cells were seeded in 6-well plates (5 × 10^5 cells/well). The following day, defined concentrations of compound 33a or 36b were added to the wells for 48 h at 37 °C with 5% CO2. The cells were collected and fixed in ice-cold 70% alcohol overnight. Then the cells were stained in propidium iodide (PI) dye for 15 min in the dark and the cell DNA contents were analyzed via flow cytometry (Becton, Dickinson Company, New Jersey, USA).

HCT116 cells [9] = experiment: Autophagy (Western blot of P62, LC3, Beclin1; TEM; MDC staining); type: cell-based, human; settings: 48 h
Method: Whole protein was extracted and separated by polyacrylamide gel electrophoresis (SDS-PAGE) and transferred onto nitrocellulose membranes. Membranes were blotted with CDK1, Cyclin B1, Caspase-3, BAX, BCL-2, PARP-1, γ-H2AX, P53, ATF4, CHOP, PERK, ATP6, LC3, Beclin1, P62, β-Catenin, c-MYC, MAX, UPP1, GAPDH, β-Actin, and β-Tubulin primary antibodies. Protein band analyses were performed with ImageJ software and protein expression levels were presented as a percentage difference compared to control.

[10] = test system: DU145 (human prostate cancer); experiment: CCK-8 anti-proliferation assay, DU145; type: cell-based; settings: Homo sapiens, DU-145; CCK-8, 48 h, mean ± SD
Method: as §2, §1

c-MYC [11] = molecular target: T1, c-MYC; experiment: Drug affinity responsive target stability (DARTS) assay; type: binding; set-up: HCT116 cells were lysed with mammalian protein extraction reagent (M-PER); endogenous in cells; host or cells: HCT116; settings: HCT116 lysate, pronase, 0-640 μmol/L
Method: HCT116 cells were lysed with mammalian protein extraction reagent (M-PER), centrifuged, and quantified by BCA protein assay. […] Proteolysis was performed by adding pronase solution at a ratio of 1:3200 for 30 min at room temperature and then stopped by adding SDS-PAGE sample loading buffer and boiling at 100 °C for 5 min. c-MYC protein was analyzed by Western blot.

| Compound | apoptosis (HCT116 cells [1]) | IC50 (HeLa cells) [µM] | thermal stability of c-MYC (c-MYC [2]) | ROS levels (HCT116 cells [3]) | IC50 [4] [µM] | wound healing (HCT116 cells [5]) | IC50 [6] [µM] | colony formation (HCT116 cells [7]) | G2/M cells (HCT116 cells [8]) | autophagy (HCT116 cells [9]) | IC50 [10] [µM] | stability of c-MYC against proteolysis (c-MYC [11]) |
| --- | --- | --- | --- | --- | --- | --- | --- | --- | --- | --- | --- | --- |
| CCOC(=O)[C@]1(n2cnc3c(N4CCCCC4)nc(F)nc32)CSC[C@H]1O (racemic) [33a] | induced apoptosis in a dose-dependent manner | 8.73 ± 1.02 | increase the thermal stability of c-MYC in HCT116 cells from 40 to 70 °C | significantly increased ROS levels in a dose-dependent manner | 2.34 ± 0.12 | significantly delay the wound healing ability of HCT116 cells in a dose-dependent manner | 0.57 ± 0.13 | reduce the colony formation number in a dose-dependent manner | increased the percentage of G2/M cells in a dose-dependent manner | could inhibit autophagy in HCT116 | 21.1 ± 1.21 | increase the stability of c-MYC in the process of protease hydrolysis |
| CCCSc1nc(F)nc2c1ncn2[C@@]1(C(=O)OCC)CSC[C@@H]1O (relative stereo) [36b] | induced apoptosis in a dose-dependent manner | 6.35 ± 1.08 | increase the thermal stability of c-MYC in HCT116 cells from 40 to 70 °C | significantly increased ROS levels in a dose-dependent manner | 1.14 ± 0.17 | significantly delay the wound healing ability of HCT116 cells in a dose-dependent manner | 0.85 ± 0.09 | reduce the colony formation number in a dose-dependent manner | increased the percentage of G2/M cells in a dose-dependent manner | could up-regulate the protein levels of P62 but showed no obvious effect on LC3-II and Beclin1 | 6.59 ± 1.36 | increase the stability of c-MYC in the process of protease hydrolysis |

Reference: publication PMC12278645, “Design, synthesis, and antitumor activity of novel thioheterocyclic nucleoside derivatives by suppressing the c-MYC pathway” (Acta Pharmaceutica Sinica. B, 2025)
